In US20190086410A1, “FUNCTION-BASED PROBES FOR ENVIRONMENTAL MICROBIOME ANALYSIS AND METHODS OF MAKING AND USING THE SAME” (Battelle Memorial Institute, priority 2017, published 2019):

Key:
[1] = system: glucuronidase activity in the gut microbiome; type: in vivo, mouse; settings: in 4 of 5 sets of littermates; vancomycin in water vs water
Description: Microbial cells from the mouse gut were suspended in PBS with a protease inhibitor (COMPLETE® EDTA-free Protease Inhibitor, ROCHE®) and lysed via bead beating (BULLET BLENDER®). β-glucuronidase assays were conducted as previously described with modifications. Briefly, 4-methylumbelliferyl-β-D-glucuronide (4-MUG; 1 mM) was added to 50 μL lysate (0.9 μg total protein) for a final concentration of 500 μM. At specific time points (0-240 minutes), 10 μL aliquots of each reaction were added to 90 μL of 0.1 M […] (pH=10) and stored in the dark. Fluorescence was measured using a plate reader (MOLECULAR BIOSCIENCES®), and the amount of hydrolyzed substrate was calculated relative to a standard curve. The rate (mM/s) was determined via linear regression (GRAPHPAD® PRISM®), and activity was calculated as rate per μg protein. Values from three independent replicates were averaged, and activity was compared across biological replicates (n=5) using a ratio paired t-test.
Pairs of littermates were exposed to water with or without vancomycin, an antibiotic known to target Firmicutes in the gut microbiota (FIG. 12). As Firmicutes made up most the probe-positive taxa in the non-treated mice (FIG. 13), vancomycin treatment may shift the GlcA-ABP+ population composition. […] Accordingly, the intensity of GlcA-ABP+ labeling decreased as well (FIG. 14B).

[2] = system: gut microbiota; type: in vivo, mouse
[3] = system: β-glucuronidases from Escherichia coli, Streptococcus agalactiae, and Clostridium perfringens; type: biochemical; settings: wild-type enzymes; fluorescence SDS-PAGE
[4] = biological target: β-glucuronidase (uidA) (Escherichia coli, UniProt P05804); type: cell-based, E. coli
[5] = system: β-glucuronidase (uidA); type: cell-based, E. coli; settings: ΔuidA strain lacking β-glucuronidase
[6] = system: WT E. coli; assay: Whole-cell probe labeling coupled to flow cytometry/FACS, E. coli only; type: cell-based; settings: 50 μM
[7] = system: Lactobacillus plantarum, which lacks a β-glucuronidase; assay: Whole-cell probe labeling coupled to flow cytometry/FACS, L. plantarum only; type: cell-based; settings: 50 μM
[8] = system: mix of WT E. coli and L. plantarum; assay: Whole-cell probe labeling coupled to flow cytometry/FACS, mix of E. coli and L. plantarum; type: cell-based, Lactobacillus plantarum
[9] = vancomycin-treated vs untreated littermates

Chain of β-glucuronidase (uidA) (Escherichia coli, UniProt P05804) (P05804 whole entry): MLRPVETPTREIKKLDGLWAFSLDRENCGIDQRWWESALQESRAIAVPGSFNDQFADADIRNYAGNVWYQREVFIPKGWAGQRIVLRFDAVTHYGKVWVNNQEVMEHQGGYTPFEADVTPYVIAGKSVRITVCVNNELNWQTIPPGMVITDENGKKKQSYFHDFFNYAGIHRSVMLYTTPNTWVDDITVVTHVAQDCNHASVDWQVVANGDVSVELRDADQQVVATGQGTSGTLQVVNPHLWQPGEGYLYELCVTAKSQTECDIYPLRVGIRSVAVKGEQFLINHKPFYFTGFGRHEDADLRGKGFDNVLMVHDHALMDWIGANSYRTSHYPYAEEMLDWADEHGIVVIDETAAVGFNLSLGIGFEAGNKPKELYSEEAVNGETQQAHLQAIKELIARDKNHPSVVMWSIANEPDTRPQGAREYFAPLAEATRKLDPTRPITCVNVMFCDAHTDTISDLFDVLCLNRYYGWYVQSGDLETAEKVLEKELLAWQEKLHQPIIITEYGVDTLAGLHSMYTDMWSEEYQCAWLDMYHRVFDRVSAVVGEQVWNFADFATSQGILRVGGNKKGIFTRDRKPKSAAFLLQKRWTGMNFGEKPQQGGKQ

CN[C@H](CC(C)C)C(=O)N[C@H]1C(=O)N[C@@H](CC(N)=O)C(=O)N[C@H]2C(=O)N[C@H]3C(=O)N[C@H](C(=O)N[C@H](C(=O)O)c4cc(O)cc(O)c4-c4cc3ccc4O)[C@H](O)c3ccc(c(Cl)c3)Oc3cc2cc(c3O[C@@H]2O[C@H](CO)[C@@H](O)[C@H](O)[C@H]2O[C@H]2C[C@](C)(N)[C@H](O)[C@H](C)O2)Oc2ccc(cc2Cl)[C@H]1O [Vancomycin, vancomycin]
glucuronidase activity in gut microbiome after treatment [1]: reduced, but did not eliminate | relative abundance of Firmicutes [2, 9]: dramatically decreased | relative abundance of Proteobacteria, Verrucomicrobia, and Bacteroidetes [2, 9]: corresponding increase | intensity of GlcA-ABP+ labeling after treatment ([2]; vancomycin-treated vs untreated mice): decreased

C#CCCCC(=O)Nc1ccc(OC2OC(C(=O)O)C(O)C(O)C2O)c(C(F)F)c1 (stereo not drawn) [GlcA-ABP, 6-(2-(difluoromethyl)-4-(hex-5-ynamido)phenoxy)-3,4,5-trihydroxytetrahydro-2H-pyran-2-carboxylic acid]
GlcA-ABP labeling intensity of purified β-glucuronidases [3]: corresponded with the catalytic efficiency of these enzymes | labeling in ΔuidA complemented with uidA ([4]; SDS-PAGE and flow cytometry): restoration of labeling | labeling of β-glucuronidase in wild type (WT) E. coli ([4]; WT E. coli, SDS-PAGE): Dose-dependent labeling | labeling in ΔuidA E. coli [5]: no labeling | cell labeling, flow cytometry [6]: labeling was observed | cell labeling, flow cytometry [7]: none | cell labeling, flow cytometry ([8]; mixture of E. coli and L. plantarum, 50 μM): an intermediate amount

C#CCCCCNC(=O)CI [IAA, iodoacetamide alkyne, reference compound]
cell labeling by positive control probe, flow cytometry ([8]; E. coli only, L. plantarum only, or mix, 10 μM): all cells were labeled
